23 compounds from US20250179078A1, “INHIBITORS OF NLRP3” (PTC THERAPEUTICS, INC., priority 2022, published 2025) can be followed below.

Molecules are shown by their SMILES.

In general, IC50 refers to the point on the concentration scale where inhibition reaches its midpoint.

This assay concerns the target T1, NLRP3 (Homo sapiens, UniProt Q96P20).
T1 construct: host or cells: THP-1 cells differentiated with PMA
The experiment in a line: IL-1β Secretion Assay (NLRP3-dependent IL1β secretion in THP1 cells). The following applies: PMA-differentiated THP-1 cells; compounds incubated 20 h; 2.5 μM Nigericin 3 h; HTRF IL-1β readout; read-out: IC50 IL-1β Inhibition. Format: cell-based. The gist of the method:
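IL-1β in conditioned media, measured by HTRF after 3 h 2.5 μM nigericin stimulation, gave % inhibition fitted logistically for IC50. Before that, PMA-differentiated (100 ng/mL, 24 h) THP-1 cells were preincubated 20 h with 7 compound concentrations (3-fold serial, DMSO 1:200).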

T1 sequence (Q96P20 whole entry): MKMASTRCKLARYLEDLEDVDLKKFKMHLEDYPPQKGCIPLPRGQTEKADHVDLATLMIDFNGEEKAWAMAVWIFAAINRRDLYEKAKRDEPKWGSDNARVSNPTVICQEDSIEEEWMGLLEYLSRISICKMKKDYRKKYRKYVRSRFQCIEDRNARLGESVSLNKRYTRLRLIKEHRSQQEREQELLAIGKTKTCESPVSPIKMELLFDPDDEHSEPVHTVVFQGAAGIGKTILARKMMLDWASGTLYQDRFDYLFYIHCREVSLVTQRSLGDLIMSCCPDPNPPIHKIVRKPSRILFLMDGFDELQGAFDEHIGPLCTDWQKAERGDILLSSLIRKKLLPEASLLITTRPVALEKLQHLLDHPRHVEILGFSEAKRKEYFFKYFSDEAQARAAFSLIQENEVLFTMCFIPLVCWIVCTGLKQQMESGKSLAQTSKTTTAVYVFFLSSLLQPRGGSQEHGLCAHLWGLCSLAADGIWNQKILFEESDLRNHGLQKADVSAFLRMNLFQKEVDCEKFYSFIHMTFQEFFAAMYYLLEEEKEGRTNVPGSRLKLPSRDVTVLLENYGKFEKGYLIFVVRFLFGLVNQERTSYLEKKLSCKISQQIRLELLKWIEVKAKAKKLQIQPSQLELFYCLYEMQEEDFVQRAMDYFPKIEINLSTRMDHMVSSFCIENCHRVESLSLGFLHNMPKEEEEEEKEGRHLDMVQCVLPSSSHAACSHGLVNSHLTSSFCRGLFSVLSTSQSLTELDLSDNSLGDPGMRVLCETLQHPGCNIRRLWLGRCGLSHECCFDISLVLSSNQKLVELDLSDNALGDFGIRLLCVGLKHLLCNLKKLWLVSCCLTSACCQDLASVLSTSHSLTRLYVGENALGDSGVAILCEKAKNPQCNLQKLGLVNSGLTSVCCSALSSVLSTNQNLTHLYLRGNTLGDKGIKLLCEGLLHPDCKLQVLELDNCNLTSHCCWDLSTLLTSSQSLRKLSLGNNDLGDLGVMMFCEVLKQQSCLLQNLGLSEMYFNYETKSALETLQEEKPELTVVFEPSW

Turning to `COc1ccc(-c2nnc(N[C@@H]3CCOC[C@H]3O)n3cccc23)c(CC(F)(F)F)c1` [Compound 144, (3S,4R)-4-({1-[4-methoxy-2-(2,2,2-trifluoroethyl)phenyl]pyrrolo[1,2-d][1,2,4]triazin-4-yl}amino)oxan-3-ol], the IC50 lay in the range of 1 to 10 nM.

Regarding `COc1ccc(-c2nnc(NCc3ncco3)n3cccc23)c(OC(F)(F)F)c1` [Compound 91, 1-[4-methoxy-2-(trifluoromethoxy)phenyl]-N-[(1,3-oxazol-2-yl)methyl]pyrrolo[1,2-d][1,2,4]triazin-4-amine], the IC50 was 10 to 100 nM.

For the compound `CN1CCC[C@@H](Nc2nnc(-c3ccc(C(F)(F)F)cc3CC(F)(F)F)c3cccn23)C1` [Compound 40, N-[(3R)-1-methylpiperidin-3-yl]-1-[2-(2,2,2-trifluoroethyl)-4-(trifluoromethyl)phenyl]pyrrolo[1,2-d][1,2,4]triazin-4-amine], the IC50 is under 1 nM.

Turning to `COc1ccc(-c2nnc(N[C@@H]3CCCN(CCO)C3)n3cncc23)c(CC(F)(F)F)c1` [Compound 278, 2-[(3R)-3-({1-[4-methoxy-2-(2,2,2-trifluoroethyl)phenyl]imidazo[1,5-d][1,2,4]triazin-4-yl}amino)piperidin-1-yl]ethan-1-ol], the IC50 was under 1 nM.

As to `Cc1ccc(-c2nnc(NC(C)c3cccc(O)c3)n3cccc23)c(OC(F)F)c1` (centres unmarked) [Compound 100, 3-[1-({1-[2-(difluoromethoxy)-4-methylphenyl]pyrrolo[1,2-d][1,2,4]triazin-4-yl}amino)ethyl]phenol], the IC50 was 1 to 10 nM.

On to `COc1ccc(-c2nnc(N[C@@H]3CCCC[C@H]3O)n3cncc23)c(OC(F)(F)F)c1` [Compound 223, (1R,2R)-2-({1-[4-methoxy-2-(trifluoromethoxy)phenyl]imidazo[1,5-d][1,2,4]triazin-4-yl}amino)cyclohexan-1-ol], for which the IC50 is 1 to 10 nM.

Regarding `OCCN1CCC[C@@H](Nc2nnc(-c3ccc(C(F)(F)F)cc3OC(F)(F)F)c3cncn23)C1` [Compound 239, 2-[(3R)-3-({1-[2-(trifluoromethoxy)-4-(trifluoromethyl)phenyl]imidazo[1,5-d][1,2,4]triazin-4-yl}amino)piperidin-1-yl]ethan-1-ol], the IC50 was under 1 nM.

For `COc1ccc(-c2nnc(N[C@H]3C[C@@](C)(O)C3)n3cncc23)c(CC(F)(F)F)c1` [Compound 236, (1s,3s)-3-({1-[4-methoxy-2-(2,2,2-trifluoroethyl)phenyl]imidazo[1,5-d][1,2,4]triazin-4-yl}amino)-1-methylcyclobutan-1-ol], the IC50 was in the range of 1 to 10 nM.

On to `OCCN1CCC[C@@H](Nc2nnc(-c3ccc(C(F)(F)F)cc3OC(F)F)c3c(F)ccn23)C1` [Compound 15], for which the IC50 fell in the range of 1 to 10 nM.

For `O[C@@H]1COCC[C@@H]1Nc1nnc(-c2ccc(C(F)(F)F)cc2CC(F)(F)F)c2cccn12` [Compound 115, (3S,4S)-4-({1-[2-(2,2,2-trifluoroethyl)-4-(trifluoromethyl)phenyl]pyrrolo[1,2-d][1,2,4]triazin-4-yl}amino)oxan-3-ol], the IC50 was 1 to 10 nM.

In the case of `C[C@]1(CO)C[C@@H](Nc2nnc(-c3ccc(C(F)(F)F)cc3OC(F)(F)F)c3cncn23)C1` [Compound 340, [(1s,3s)-1-methyl-3-({1-[2-(trifluoromethoxy)-4-(trifluoromethyl)phenyl]imidazo[1,5-d][1,2,4]triazin-4-yl}amino)cyclobutyl]methanol], the IC50 fell in the range of 1 to 10 nM.

Turning to `O[C@@H]1CCCC[C@H]1Nc1nnc(-c2ccc(Br)cc2OC(F)F)c2cncn12` [Compound 306, (1R,2R)-2-({1-[4-bromo-2-(difluoromethoxy)phenyl]imidazo[1,5-d][1,2,4]triazin-4-yl}amino)cyclohexan-1-ol], the IC50 fell in the range of 1 to 10 nM.

As to `COc1cccc(C(C)Nc2nnc(-c3ccc(OC)cc3C(F)(F)F)c3c(F)ccn23)c1` (centres unmarked) [Compound 148, 8-fluoro-N-[1-(3-methoxyphenyl)ethyl]-1-[4-methoxy-2-(trifluoromethyl)phenyl]pyrrolo[1,2-d][1,2,4]triazin-4-amine], the IC50 was in the range of 100 to 300 nM.

On to `CCN1CCC[C@@H](Nc2nnc(-c3ccc(Cl)cc3)c3cc(C)nn23)C1` [Compound 377, 4-(4-chlorophenyl)-N-[(3R)-1-ethylpiperidin-3-yl]-2-methylpyrazolo[1,5-d][1,2,4]triazin-7-amine], for which the IC50 was 1 to 10 nM.

On to `CN1CCCC(Nc2nnc(-c3ccc(OC(F)F)cc3OC(F)(F)F)c3cncn23)C1=O` (centres unmarked) [Compound 328, 3-({1-[4-(difluoromethoxy)-2-(trifluoromethoxy)phenyl]imidazo[1,5-d][1,2,4]triazin-4-yl}amino)-1-methylpiperidin-2-one], for which the IC50 lay in the range of 10 to 100 nM.

On to `CCN1C[C@H](F)C[C@@H](Nc2nnc(-c3ccc(C(F)(F)F)cc3OC(F)F)c3c(F)ccn23)C1` [Compound 5, 1-[2-(difluoromethoxy)-4-(trifluoromethyl)phenyl]-N-[(3R,5R)-1-ethyl-5-fluoropiperidin-3-yl]-8-fluoropyrrolo[1,2-d][1,2,4]triazin-4-amine], for which the IC50 lay in the range of 1 to 10 nM.

For `COc1ccc(-c2nnc(N[C@H]3C[C@@H](CO)C3)n3cncc23)c(OC(F)(F)F)c1` [Compound 291, [(1s,3s)-3-({1-[4-methoxy-2-(trifluoromethoxy)phenyl]imidazo[1,5-d][1,2,4]triazin-4-yl}amino)cyclobutyl]methanol], the IC50 was in the range of 1 to 10 nM.

Take `OCCN1CCC[C@@H](Nc2nnc(-c3ccc(OC(F)F)cc3OC(F)(F)F)c3cncn23)C1` [Compound 258, 2-[(3R)-3-({1-[4-(difluoromethoxy)-2-(trifluoromethoxy)phenyl]imidazo[1,5-d][1,2,4]triazin-4-yl}amino)piperidin-1-yl]ethan-1-ol]: the IC50 lay within 1 to 10 nM.

`O[C@H]1CCOC[C@@H]1Nc1nnc(-c2ccc(C(F)(F)F)cc2C(F)(F)F)c2cncn12` [Compound 274, (3S,4S)-3-({1-[2,4-bis(trifluoromethyl)phenyl]imidazo[1,5-d][1,2,4]triazin-4-yl}amino)oxan-4-ol]: the IC50 was in the range of 10 to 100 nM.

For `COc1cccc(C(C)Nc2nnc(-c3ccc(OC)cc3OC(F)(F)F)c3cncn23)c1` (centres unmarked) [Compound 230, N-[1-(3-methoxyphenyl)ethyl]-1-[4-methoxy-2-(trifluoromethoxy)phenyl]imidazo[1,5-d][1,2,4]triazin-4-amine], the IC50 is at least 300 nM.

Turning to `COc1ccc(-c2nnc(N[C@@H]3C[C@@H](F)CN(C)C3)n3cncc23)c(OC(F)(F)F)c1` [Compound 210, N-[(3R,5R)-5-fluoro-1-methylpiperidin-3-yl]-1-[4-methoxy-2-(trifluoromethoxy)phenyl]imidazo[1,5-d][1,2,4]triazin-4-amine], the IC50 is 1 to 10 nM.

Turning to `Cc1cc2c(-c3ccc(C(F)(F)F)cc3OC(F)F)nnc(N[C@@H]3CCCC[C@H]3O)n2n1` [Compound 381, (1R,2R)-2-({4-[2-(difluoromethoxy)-4-(trifluoromethyl)phenyl]-2-methylpyrazolo[1,5-d][1,2,4]triazin-7-yl}amino)cyclohexan-1-ol], the IC50 is 10 to 100 nM.

As for `FC(F)(F)Cc1cc(C(F)(F)F)ccc1-c1nnc(Nc2cc[nH]n2)n2cccc12` [Compound 97, N-(1H-pyrazol-3-yl)-1-[2-(2,2,2-trifluoroethyl)-4-(trifluoromethyl)phenyl]pyrrolo[1,2-d][1,2,4]triazin-4-amine], the IC50 is 10 to 100 nM.
